Measured values: US9963448B2, “Bicyclic inhibitors of PAD4” (Padlock Therapeutics, Inc., priority 2015, dated 2018)
pIC50: −log10 of the molar value. Structures can show the parent of a compound that is named as a salt. Where two headings read alike, the source gives them in different places.

Columns and labels:
hPAD4 = hPAD4 (Homo sapiens, UniProt Q9UM07); experiment: hPAD4 RFMS (RapidFire mass spectrometry) PAD4 inhibition assay; type: biochemical; details: hPAD4 enzyme, RFMS readout; for IC50: pIC50=−log(IC50), read-out: hPAD4 RFMS pIC50 (converted); for pIC50: read-out: hPAD4 RFMS IC50;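 for hPAD4 RFMS pIC50: grade E means pIC50 at most 4 and F means pIC50 4.0 to 5.0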
Description: (§1) Compounds of the present invention were assayed as inhibitors of PAD4 using the assay protocol described below.
(§2) Compound stock solutions were stored at RT. […] Final assay conditions were as follows:
(§3) Total incubation time: 65 mins at 37° C.
(§4) Stop solution: 40 μl 5% TCA in ACN
(§5) The compound numbers correspond to the compound numbers in Table 1. […] The term pIC50=−log(IC50). […] “NA” stands for “not assayed.”

mPAD4 = mPAD4 (Mus musculus, UniProt Q9Z183); experiment: mPAD4 RFMS PAD4 inhibition assay; type: biochemical; details: mPAD4, RFMS readout; for IC50: pIC50=−log(IC50), read-out: mPAD4 RFMS pIC50 (converted); for pIC50: read-out: mPAD4 RFMS IC50;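 for mPAD4 RFMS pIC50: grade E means pIC50 at most 4 and F means pIC50 4.0 to 5.0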
Description: as §1, §2, §3, §4, §5

Sequence of hPAD4 (Q9UM07 whole entry): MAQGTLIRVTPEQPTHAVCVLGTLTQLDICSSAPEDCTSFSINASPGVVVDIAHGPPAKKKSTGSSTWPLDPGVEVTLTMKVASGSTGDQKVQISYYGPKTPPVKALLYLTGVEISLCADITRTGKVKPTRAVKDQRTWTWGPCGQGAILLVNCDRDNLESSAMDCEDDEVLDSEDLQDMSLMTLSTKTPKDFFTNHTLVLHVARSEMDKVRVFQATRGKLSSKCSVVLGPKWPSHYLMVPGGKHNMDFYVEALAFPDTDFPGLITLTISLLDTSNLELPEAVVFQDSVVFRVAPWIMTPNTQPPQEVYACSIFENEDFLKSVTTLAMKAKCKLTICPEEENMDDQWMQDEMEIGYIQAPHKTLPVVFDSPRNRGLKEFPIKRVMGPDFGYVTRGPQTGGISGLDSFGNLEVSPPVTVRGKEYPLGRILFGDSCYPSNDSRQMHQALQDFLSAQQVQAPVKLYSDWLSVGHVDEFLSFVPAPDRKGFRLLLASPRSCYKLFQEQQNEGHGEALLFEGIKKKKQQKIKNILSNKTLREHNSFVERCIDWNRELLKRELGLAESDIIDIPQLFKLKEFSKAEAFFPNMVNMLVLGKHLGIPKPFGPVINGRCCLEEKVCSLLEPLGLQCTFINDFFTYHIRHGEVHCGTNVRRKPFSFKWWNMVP
Sequence of mPAD4 (Q9Z183 whole entry): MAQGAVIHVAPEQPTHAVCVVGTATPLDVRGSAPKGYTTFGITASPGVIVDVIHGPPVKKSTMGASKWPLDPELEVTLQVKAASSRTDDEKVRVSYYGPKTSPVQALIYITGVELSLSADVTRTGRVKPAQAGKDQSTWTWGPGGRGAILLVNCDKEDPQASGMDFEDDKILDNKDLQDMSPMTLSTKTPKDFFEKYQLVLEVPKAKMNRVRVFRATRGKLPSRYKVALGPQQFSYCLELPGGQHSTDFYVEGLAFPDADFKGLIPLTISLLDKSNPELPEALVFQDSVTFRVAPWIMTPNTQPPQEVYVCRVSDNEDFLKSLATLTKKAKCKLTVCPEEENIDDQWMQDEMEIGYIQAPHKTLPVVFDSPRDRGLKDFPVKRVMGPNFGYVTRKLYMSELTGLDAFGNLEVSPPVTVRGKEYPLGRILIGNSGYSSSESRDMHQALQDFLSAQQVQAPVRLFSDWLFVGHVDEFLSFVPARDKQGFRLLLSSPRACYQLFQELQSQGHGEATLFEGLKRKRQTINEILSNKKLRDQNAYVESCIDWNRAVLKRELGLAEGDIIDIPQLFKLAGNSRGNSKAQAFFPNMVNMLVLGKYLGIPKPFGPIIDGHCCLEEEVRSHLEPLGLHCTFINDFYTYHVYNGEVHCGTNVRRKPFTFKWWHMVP

Structure (SMILES) | IC50 (hPAD4) [nM] | pIC50 (hPAD4) | IC50 (mPAD4) [nM] | pIC50 (mPAD4)
CCn1c(-c2cc3cccnc3n2CC2CC2)nc2cc(C(=O)N3CCC[C@@H](N)C3)cc(OC)c21 [Compound I-119, (3R)-1-{2-[1-(cyclopropylmethyl)-1H-pyrrolo[2,3-b]pyridin-2-yl]-1-ethyl-7-methoxy-1H-1,3-benzodiazole-5-carbonyl}piperidin-3-amine] | < 1000 | > 6.00 | < 1000 | > 6.00
CCn1c(-c2nc3cc(C(=O)N4CCC[C@@H](N)C4)cc(OC)c3n2C)cc2ccc(C)nc21 [Compound I-161] | < 1000 | > 6.00 | < 1000 | > 6.00
Cn1c(-c2cc3cccnc3n2CC2CC2)nc2cc(C(=O)N3CCC[C@@H](N)C3)c(F)cc21 [Compound I-172] | 1000 to 10000 | 5.30 to 6.00 | 1000 to 10000 | 5.30 to 6.00
COc1cc(C(=O)N2C[C@H]3CC[C@@H]2[C@@H]3N)cc2nc(-c3cc4ccc(C(C)(C)O)nc4n3CC3CC3)n(C)c12 [Compound I-210, 2-(2-{5-[(1R,4R,7R)-7-Amino-2-azabicyclo[2.2.1]heptane-2-carbonyl]-7-methoxy-1-methyl-1H-1,3-benzodiazol-2-yl}-1-(cyclopropylmethyl)-1H-pyrrolo[2,3-b]pyridin-6-yl)propan-2-ol] | < 1000 | > 6.00 | < 1000 | > 6.00
CCn1c(-c2nc3cc(C(=O)N4CCC[C@@H](N)C4)ccc3n2CCOC)cc2cccnc21 [Compound I-185] | 1000 to 10000 | 5.00 to 5.30 | 10000 to 100000 | < 5.00
COc1cc(C(=O)N2CCC[C@@H](N)C2)cc2nc(-c3cc4ccc(C(F)(F)F)nc4n3CC3CC3)n(C)c12 [Compound I-197] | < 1000 | > 6.00 | < 1000 | > 6.00
COc1cc(C(=O)N2C[C@H]3CC[C@@H]2[C@@H]3N)cc2nc(-c3cc4cccnc4n3CC3CC3)n(C[C@H]3C[C@@H](OC)C3)c12 [Compound I-236] | < 1000 | > 6.00 | < 1000 | > 6.00
COc1cc(C(=O)N2C[C@H]3CC[C@@H]2[C@@H]3N)cc2nc(-c3cc4cccnc4n3CC3CC3)n([C@H]3C[C@@H](OC)C3)c12 [Compound I-219] | < 1000 | > 6.00 | 1000 to 10000 | 5.30 to 6.00
Cn1c(-c2cc3cccnc3n2CC2CC2)nc2cc(C(=O)N3CCC[C@@H](N)C3)cc(OCC(F)(F)F)c21 [Compound I-59] | 1000 to 10000 | 5.30 to 6.00 | < 1000 | > 6.00
Cn1c(-c2cc3cccnc3n2CC2CC2)nc2cc(C(=O)N3CC[C@H](F)[C@@H](N)C3)ccc21 [Compound I-54] | 1000 to 10000 | 5.00 to 5.30 | 10000 to 100000 | < 5.00
Cn1c(-c2cc3cccnc3n2CC2CC2)nc2cc(C(=O)N3CC[C@H]4CCN[C@H]4C3)cc(OC(F)F)c21 (single isomer, unassigned) [Compound I-25, hydrochloride] | 1000 to 10000 | 5.30 to 6.00 | 1000 to 10000 | 5.30 to 6.00
COc1ccc2cc(-c3nc4cc(C(=O)N5C[C@@H](N)C[C@H](F)C5)ccc4n3C)n(CC3CC3)c2n1 [Compound I-354, ((3S,5S)-3-amino-5-fluoropiperidin-1-yl)(2-(1-(cyclopropylmethyl)-6-methoxy-1H-pyrrolo[2,3-b]pyridin-2-yl)-1-methyl-1H-benzo[d]imidazol-5-yl)methanone] | < 1000 | > 6.00 |  | 
COc1cc(C(=O)N2C[C@H]3CC[C@@H]2[C@@H]3N)cc2nc(-c3cc4ccc(C#N)cc4n3CC3CC3)n(C)c12 [Compound I-371] | < 1000 | > 6.00 |  | 
COCCn1c(-c2nc3cc(C(=O)N4C[C@H]5CC[C@@H]4[C@@H]5N)cc(OC)c3n2C)cc2cccnc21 [Compound I-169] | < 1000 | > 6.00 |  | 
COCCn1c(-c2nc3cc(C(=O)N4C[C@H](N)CC[C@@H]4C)cc(OC)c3n2C)cc2cccnc21 (racemic) [Compound I-170] | 1000 to 10000 | 5.30 to 6.00 |  | 
Cn1c(-c2cc3cccnc3n2CC2CC2)nc2cc(C(=O)N3CCC[C@@H]4NCC[C@@H]43)ccc21 [Compound I-61] | > 100000 | < 5.00 |  | 
Cn1c(-c2cc3cccnc3n2CC2CC2)nc2cc(C(=O)N3CC4CNC4C3)ccc21 (centres unmarked) [Compound I-38] | > 100000 | < 5.00 |  | 
COc1cc(C(=O)N2C[C@H]3CC[C@H]2[C@H]3N)cc2nc(-c3cc4cc(/C=C/c5ccc(C(F)(F)F)cc5)ccc4n3CC3CC3)n(C)c12 [Compound I-361, ((1S,4R)-7-amino-2-azabicyclo[2.2.1]heptan-2-yl)(2-(1-(cyclopropylmethyl)-5-((E)-4-(trifluoromethyl)styryl)-1H-indol-2-yl)-7-methoxy-1-methyl-1H-benzo[d]imidazol-5-yl)methanone] | < 1000 | > 6.00 |  | 

Structure (SMILES) | IC50 (hPAD4) [nM] | pIC50 (hPAD4) | IC50 (mPAD4) [nM] | pIC50 (mPAD4)
Cn1c(-c2cc3cccnc3n2CC2CC2)nc2cc(C(=O)N3CCC[C@@H]4CNC[C@@H]43)ccc21 [Compound I-43] | > 100000 | < 5.00 |  | 
CCn1c(-c2nc3cc(C(=O)N4C[C@H]5CC[C@@H]4[C@@H]5N)cc(OC)c3n2C[C@H]2C[C@@](C)(OC)C2)cc2cccnc21 [Compound I-168] | < 1000 | > 6.00 |  | 
COc1ccc2cc(-c3nc4cc(C(=O)N5C[C@H](N)CC[C@@H]5C)cc(OC)c4n3C)n(CC3CC3)c2n1 [Compound I-355, ((2S,5R)-5-amino-2-methylpiperidin-1-yl)(2-(1-(cyclopropylmethyl)-6-methoxy-1H-pyrrolo[2,3-b]pyridin-2-yl)-7-methoxy-1-methyl-1H-benzo[d]imidazol-5-yl)methanone] | < 1000 | > 6.00 |  | 
COc1cc(C(=O)N2CCC3CCNC3C2)cc2nc(-c3cc4cccnc4n3CC3CC3)n(C)c12 (centres unmarked) [Compound I-8] | < 1000 | > 6.00 |  | 
COc1cc(C(=O)N2C[C@H]3CCC2[C@H]3N)cc2nc(-c3cc4cc(N(C)CCC5CC5)ccc4n3CC3CC3)n(C)c12 [Compound I-373] | 1000 to 10000 | 5.30 to 6.00 |  | 
COc1cc(C(=O)N2C[C@H]3CCC2[C@H]3N)cc2nc(-c3cc4ccc(/C=C/c5ccc(C(F)(F)F)cc5)cc4n3CC3CC3)n(C)c12 [Compound I-367] | < 1000 | > 6.00 |  | 
Cn1c(-c2cc3cccnc3n2CC2CC2)nc2cc(C(=O)N3C[C@H](N)C[C@H](F)C3)ccc21 [Compound I-67] | 10000 to 100000 | < 5.00 |  | 
Cn1c(-c2cc3cccnc3n2CC2CC2)nc2cc(C(=O)N3CC4CCC(C3)C4N)ccc21 (centres unmarked) [Compound I-50] | > 100000 | < 5.00 |  | 
Cn1c(-c2cc3cccnc3n2CC2CC2)nc2cc(C(=O)N3CCCC4(CCCNC4)C3)ccc21 (centres unmarked) [Compound I-45] | > 100000 | < 5.00 |  | 
COc1cc(C(=O)N2C[C@H]3CCC2[C@H]3N)cc2nc(-c3cc4ccc(/C=C/CCc5ccccc5)cc4n3CC3CC3)n(C)c12 [Compound I-369] | < 1000 | > 6.00 |  | 
COc1cc(C(=O)N2C[C@H]3CCC2[C@H]3N)cc2nc(-c3cc4ccc(/C=C/Cc5ccccc5)cc4n3CC3CC3)n(C)c12 [Compound I-366] | < 1000 | > 6.00 |  | 
Cn1c(-c2cc3cccnc3n2CC2CC2)nc2cc(C(=O)N3CCC[C@H]4CNC[C@H]43)ccc21 [Compound I-44] | > 100000 | < 5.00 |  | 
CCn1c(-c2nc3cc(C(=O)N4CC[C@@H]5CCN[C@@H]5C4)ccc3n2C)cc2cccnc21 [Compound I-5] | 10000 to 100000 | < 5.00 |  | 
Cn1c(-c2cc3cccnc3n2CC2CC2)nc2cc(C(=O)N3CC4CC3CN4)ccc21 (centres unmarked) [Compound I-37] | > 100000 | < 5.00 |  | 
Cn1c(-c2cc3cccnc3n2CC2CC2)nc2cc(C(=O)N3CCCC4(CCCCN4)C3)ccc21 (centres unmarked) [Compound I-48] | 10000 to 100000 | < 5.00 |  | 
CCn1c(-c2nc3cc(C(=O)N4CC[C@H]5CCN[C@H]5C4)cc(OC)c3n2C)cc2cccnc21 (single isomer, unassigned) [Compound I-14] | 10000 to 100000 | < 5.00 |  | 
CCn1c(-c2nc3cc(C(=O)N4CCC5CCNC5C4)cc(OC)c3n2C)cc2cccnc21 (centres unmarked) [Compound I-13, 2-{1-ethyl-1H-pyrrolo[2,3-b]pyridin-2-yl}-7-methoxy-1-methyl-5-{octahydro-1H-pyrrolo[2,3-c]pyridine-6-carbonyl}-1H-1,3-benzodiazole] | 1000 to 10000 | 5.30 to 6.00 |  | 
